Results published in patent US20090030037A1, “Sustained Release Formulation and Dosing Schedules of Leukotriene Synthesis Inhibitor for Human Therapy” (deCODE Genetics ehf., priority 2005, published 2009).

Tests used:
Type in all cases: in vivo, human
[1] = tested on: LTB4; assay: Study DG-031-204: serum LTB4; conditions: after 4 weeks
Procedure: (§1) An additional single site, open label study was carried out to obtain biomarker and safety data on additional DG-031 doses (i.e., 1000 mg and 1500 mg). This study examined the safety, tolerability and dose-related effects of DG-031 on inflammatory biomarkers including: LTB4, hsCRP, and MPO. A total of 119 patients with a prior history of CAD and MI were randomized to receive either 1000 mg DG-031 (500 mg BID) or 1500 mg DG-031 (500 mg TID) daily for 4-6 weeks. Treatment with DG-031 in addition to the subject's standard care, medication, and treatment, was prescribed by the patient's cardiologist. A majority of the subjects received statin therapy before, during and after the study. Follow-up assessments were performed 2 weeks after the end of study drug administration.
The biomarkers were analyzed as described in Example 1. Statistical analysis of the data was carried out using a one-sample t-test on change from baseline with a two-sided nominal significance level of 0.050. […]
Serum was collected weekly for determination of LTB4 concentration in response to the treatment with DG-031. […] Stimulated LTB4 effects measured in study DG-031-204, as shown in the raw data set out in Table 12, appear consistent with projections from the exposure-response analysis based on data from studies DG-031-201 and DG-031-203. […]

[2] = tested on: Prostaglandin F; assay: Study DG-031-204: Prostaglandin F (PGF); conditions: after 4 weeks of treatment
Procedure: as §1
The biomarkers were analyzed as described in Example 1. Statistical analysis of the data was carried out using a one-sample t-test on change from baseline with a two-sided nominal significance level of 0.050. Biomarker concentrations were log-transformed and a simple last observation carried forward (LOCF) scheme was used to impute missing observations.
Prostaglandin F (PGF) was measured at 2-week intervals.

[3] = tested on: CRP; assay: Study DG-031-201: Hs-CRP in serum; conditions: for CRP, change: Study 201, 2-6 wks
Procedure: Genet. 2004). Apart from FLAP, allele A of the SNP SG12S25 in the LTA4 hydrolase gene, another gene in the LT pathway, is also associated with MI, as described in PCT application no. PCT/US03/32556 and PCT/US04/30582 incorporated by reference.
Patients who met the study eligibility criteria were enrolled and randomized into 3 different dose-level groups: (1) 64 patients on 250 mg/day therapy with DG-031 (250 mg q.d.), vs placebo; (2) 64 patients on 500 mg/day therapy with DG-031 (250 mg b.i.d.) vs placebo; and (3) 63 patients on 750 mg/day therapy with DG-031 (250 mg t.i.d.) vs placebo. […] All patients received 3 tablets per day. Treatment periods, 4 weeks in duration each, were separated by a 2-week washout period. The placebo tablets were identical in shape, color, form and taste to the active tablets except that they contained no active drug ingredients. Treatment with DG-031 or placebo was in addition to the subject's standard care, including all medications and treatment plan as prescribed by the subject's cardiologist prior to enrolment. A total of 191 subjects were enrolled, with 172 completing all 8 visits or 8 patients short of the target of 180 patients.
The primary objective was to determine whether the FLAP inhibitor has a statistically significant effect, compared to placebo, on one or more biomarkers of MI risk, including: (1) ionomycin-induced LTB4 and MPO release by neutrophils ex vivo; (2) MPO, CRP, N-tyrosine, Lp-PLA2 or amyloid A in serum, or (3) LTE4 in urine. The secondary objective was to determine whether the effect of DG-031 was dose-dependent. The tertiary objective was to assess other biomarkers (See Results). Evaluation of safety and tolerability of the drug was also a primary endpoint.
All data were analyzed according to a pre-established statistical analysis plan (SAP) and by intention-to-treat (ITT). Each arm of the study, as well as pooled sets (combining dose levels), was considered for the primary analysis. Each such set is an AB/BA cross-over design and in the primary analysis of efficacy, the levels of biomarkers of MI risk at the end of the treatment periods (visits 4 and 7) were used as primary response variables. The difference between DG-031 and placebo treatment was the primary outcome, assessed separately for each of the biomarkers. Treatment effect was tested using a two-sample t-test on the period differences for suitably transformed response variables, under an assumption of normality of the transformed data. We report treatment effect as one half of the observed mean differences in the two-sample t-test, with a 95% CI. No pre-tests for carry-over effect were performed as a part of the primary analysis. Tests for carry-over were done and are reported separately from results of primary analysis. All hypotheses were tested at a two-sided nominal significance level of 0.05 and p-values based on t-tests are reported. In addition, for the primary efficacy endpoints where the effects of the two highest doses on 10 primary variables were studied, a randomization test was performed which corrects for multiple testing and ensures that the key results are not affected by distributional concerns. In particular, 1 million permutations of the patients into the different study tracks were performed, generating a reference distribution for the maximum of the 10 t-statistics of the biomarkers under the null hypothesis of no drug effect. By comparing the observed t-statistic of each of the 10 biomarkers to this reference distribution, empirical p-values were computed. As was stated in the SAP prior to unblinding, it was considered likely that experimental manipulations would alter the effect of the drug on two of the primary markers; this was indeed the case and we are only reporting directly on 8 of the 10 primary markers but all 10 are included in the randomization test. […]

[4] = Study DG-031-204: liver function tests (AST, ALT, GGT); conditions: 500 mg BID or TID
Procedure: as §1
Liver function tests (AST, ALT, GGT) were assessed weekly during study drug administration and two weeks after dosing. […] Serum creatinine (Cr) was measured weekly during study drug administration and two weeks after dosing. In both the 500 mg BID and 500 mg TID treatment groups, mean serum Cr concentrations increased 4-5% relative to baseline levels. At the 2-week follow up visit, mean serum Cr returned to baseline in the cohort treated for 4 weeks, but remained elevated in the group treated for 6 weeks. Creatine kinase (CK) measurements were obtained weekly during study drug administration and two weeks after dosing.

With `O=C(O)[C@@H](c1ccc(OCc2ccc3ccccc3n2)cc1)C1CCCC1` [DG-031, (R)-(+)-alpha-cyclopentyl-4-(2-quinolinylmethoxy)-Benzeneacetic acid] the “Serum LTB4 (% change from baseline)” value ([1]; 1000 mg (500 mg BID)) was −73%, the “Serum LTB4 (% change from baseline)” value ([1]; 1500 mg (500 mg TID)) was −50% and the “Trends in PGF” value [2] was “No significant trends”. For the same compound, the “Reduction in CRP” value ([3]; 250 mg BID and TID, end of wash-out period (week 6)) was 25%, the “CRP, change” value ([3]; 250 mg BID) was −24% and the “CRP, change” value ([3]; 250 mg QD) was −6%. For the same compound, the “CRP, change” value ([3]; 250 mg TID) was −13% (St. 201), the “Carry-over effect, CRP” value ([3]; difference visit 2 to 5, 500 and 750 mg/day vs placebo) was −0.28 and the “Reduction of serum CRP” value ([3]; higher two dose groups (250 mg BID and 250 mg TID), at 2 weeks, p=0.07) was 16%. For the same compound, the “Mean liver function tests (AST, ALT, GGT)” value [4] was “No adverse trends”.
